We go through 1 molecule from patent EP0192609A2, “Acylated hexose derivatives and method for their preparation” (CIBA-GEIGY AG, priority 1985, dated 1986).

The test concerns Influenza-Viren. As to the kind of experiment: own studies in mice infected with influenza viruses (prophylaxis and therapy of virus infection, compound alone without vaccine). The test is classed as in vivo, Mäuse. Particulars: per se, i.e. without added vaccine. An excerpt:
Aus der Französischen Patentanmeldung Nr. 74 22 909 mit der Publikationsnummer 2 292 486 sind Muramylpeptide vom Typ der Verbindung N-Acetyl-muramyl-L-alanyl-D-isoglutamin ("MDP") bekannt. Diese Verbindungen sind als immunologische Adjuvanzien beschrieben, d.h. sie können in Mischung mit Impfstoffen dazu benützt werden, den Impferfolg zu verbessern. Eigene Untersuchungen, z.B. bei mit Influenza-Viren infizierten Mäusen, haben ergeben, dass N-Acetyl-muramyl-L-alanyl-D-isoglutamin per se, d.h. ohne Beimengung von Impfstoffen, bei der Prophylaxe und Therapie von Virusinfektionen unwirksam ist. Auch ist die Verwendbarkeit strukturell einfacher Muramylpeptide und ihrer Analogen gegen Virusinfektionen bisher nicht beschrieben.

`CC(=O)N[C@H]1C(O)O[C@H](CO)[C@@H](O)[C@@H]1O[C@H](C)C(=O)N[C@@H](C)C(=O)N[C@H](CCC(=O)O)C(N)=O` (stereo partly drawn) [N-Acetyl-muramyl-L-alanyl-D-isoglutamin]: the “Wirksamkeit bei der Prophylaxe und Therapie von Virusinfektionen” value was “unwirksam”.
